From PubChem BioAssay (NCI) come the findings set out here.

Some test systems named below: SF-295 CNS; HL-60(TB) leukemia; A498 renal; RXF 393 renal; M14 melanoma; A549 NSCLC; SN12C renal; U251 CNS; SNB-19 CNS; HCC-2998 colon.
Common to all, as to assay: DTP human tumour cell line panel, 48 h

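Five concentrations, 48 hours, 96-well plates. Here, GI50 denotes the concentration required for 50% inhibition of growth. At the TGI there is no net growth.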

A word on the GI50: it is the concentration that inhibits growth by half. In general, TGI refers to the concentration giving total growth inhibition. A high value points to less potent growth arrest. As for `CCOC1Oc2ccccc2C(=O)/C1=C\Nc1ccc(C(=O)O)c(O)c1` (configuration not stated), the GI50 with SF-295 CNS is 21.9 µM; in the assay on HL-60(TB) leukemia it was 32.7 µM; in the assay with A498 renal, 30.6 µM; in the assay with RXF 393 renal, 16.9 µM; in the assay with M14 melanoma it was 17.3 µM; with A549 NSCLC, above 100 µM. The GI50 in the assay on SN12C renal was 16.5 µM; with U251 CNS it was 19.1 µM; with SNB-19 CNS it was 28.6 µM. Besides, the TGI in the assay on SF-295 CNS was 55.4 µM; in the assay with HL-60(TB) leukemia, above 100 µM; in the assay on A498 renal it was 73.7 µM; in the assay with RXF 393 renal, 41.9 µM; in the assay on M14 melanoma, 36 µM; in the assay with A549 NSCLC it was above 100 µM. In addition, the results for the concentration for total growth inhibition (TGI) in the assay with SN12C renal, with U251 CNS and in the assay with SNB-19 CNS were 36.7 µM, 46.5 µM and 94.4 µM, respectively.
For `O=C(O)C1C2C=CC(O2)C1C(=O)NCc1ccncc1` (configuration not stated), the TGI in the assay with SF-295 CNS, in the assay on HL-60(TB) leukemia, in the assay on A498 renal, in the assay with RXF 393 renal, in the assay on M14 melanoma and in the assay on A549 NSCLC was above 100 µM each time. For the same molecule, the TGI in the assay with SN12C renal, in the assay on U251 CNS and in the assay with SNB-19 CNS was above 100 µM throughout.
For the molecule `CC(C)c1ccc(C(O)(C(=O)O)c2ccc(C(C)C)cc2)cc1`, the TGI with SF-295 CNS is 95.5 µM; in the assay on HL-60(TB) leukemia, 99.4 µM; in the assay with A498 renal it was above 100 µM; in the assay with RXF 393 renal it was above 100 µM; with M14 melanoma, above 100 µM; in the assay with A549 NSCLC, above 100 µM. Also, the concentration for total growth inhibition (TGI) in the assay on SN12C renal was above 100 µM; in the assay with U251 CNS it was 42.9 µM; with SNB-19 CNS, above 100 µM.
On to `COc1ccc2[nH]cc(Cc3c[nH]c4ccc(OC)cc34)c2c1`, for which the GI50 is 16.6 µM with SF-295 CNS; 44.2 µM in the assay with HL-60(TB) leukemia; 3.32 µM in the assay with A498 renal; 28 µM with RXF 393 renal; 20.3 µM in the assay with M14 melanoma; 19.1 µM in the assay on A549 NSCLC. In addition, the GI50 with SN12C renal was 17.5 µM; in the assay with U251 CNS it was 15.9 µM; in the assay with SNB-19 CNS it was 29.3 µM. Moreover, the total growth inhibition concentration (TGI) was 34.5 µM in the assay with SF-295 CNS; above 100 µM in the assay on HL-60(TB) leukemia; 14.5 µM in the assay on A498 renal; 54.7 µM in the assay on RXF 393 renal; 44 µM in the assay on M14 melanoma; 46.9 µM in the assay with A549 NSCLC. Further, the TGI came to 31.3 µM with SN12C renal, 29.4 µM with U251 CNS and 79.8 µM in the assay on SNB-19 CNS.
For the molecule `COc1ccc(C(=O)Nc2ccn(CCOC(=O)c3ccc(OC)cc3)c(=O)n2)cc1`, the concentration for total growth inhibition (TGI) in the assay on SF-295 CNS is above 100 µM; in the assay on HL-60(TB) leukemia it was above 100 µM; in the assay on A498 renal, above 100 µM; in the assay with RXF 393 renal it was 54.3 µM; in the assay on M14 melanoma, above 100 µM; in the assay on A549 NSCLC, above 100 µM. The TGI with SN12C renal and in the assay on U251 CNS was above 100 µM each time.
For the molecule `CC1=C(C(=O)Nc2ccccc2C)C(c2ccccc2O)C(C(=O)Nc2ccccc2C)=C(C)N1`, the TGI with SF-295 CNS is 40.3 µM; in the assay with HL-60(TB) leukemia, 61.2 µM; in the assay on A498 renal, 64.8 µM; in the assay on RXF 393 renal, 47.3 µM; in the assay on M14 melanoma, 39.8 µM; in the assay with A549 NSCLC, above 100 µM. Also, the values for the TGI with SN12C renal, with HCC-2998 colon and in the assay on SNB-19 CNS were 44 µM, 29.6 µM and above 100 µM, respectively.
Take `COc1ccc2c(c1)C(=O)/C(=C/c1cccc(OCC(=O)c3ccc([N+](=O)[O-])cc3)c1)CO2`: the GI50 in the assay on SF-295 CNS is 2.26 µM; in the assay on HL-60(TB) leukemia, 2.34 µM; in the assay with A498 renal it was 14.3 µM; in the assay on RXF 393 renal, 1.89 µM; with M14 melanoma, 2.19 µM; with A549 NSCLC, 6.72 µM. Moreover, the GI50 in the assay with SN12C renal is 2.92 µM; with U251 CNS it was 1.6 µM; in the assay with SNB-19 CNS, 12.4 µM. The TGI in the assay with SF-295 CNS turned out to be 7.1 µM; with HL-60(TB) leukemia, 12.8 µM; in the assay with A498 renal, 27.3 µM; in the assay with RXF 393 renal, 4.32 µM; in the assay with M14 melanoma, 4.32 µM; in the assay with A549 NSCLC it was 22.8 µM. For the same molecule, the figures for the TGI in the assay on SN12C renal, in the assay on U251 CNS and in the assay on SNB-19 CNS were 11.4 µM, 3.16 µM and 25.4 µM, respectively.
`O=C(O)CC(S)C(=O)O.[Li+].[Sb]` (configuration not stated): the GI50 with SF-295 CNS was 55.3 µM; in the assay on HL-60(TB) leukemia, above 100 µM; in the assay on A498 renal, above 100 µM; in the assay on RXF 393 renal it was above 100 µM; in the assay on M14 melanoma, 39.5 µM; with A549 NSCLC, above 100 µM. The results for the GI50 in the assay with SN12C renal, in the assay with U251 CNS and with SNB-19 CNS were above 100 µM, 39.9 µM and above 100 µM, respectively. The concentration for total growth inhibition (TGI) in the assay with SF-295 CNS, in the assay on HL-60(TB) leukemia, in the assay on A498 renal, in the assay on RXF 393 renal, with M14 melanoma and with A549 NSCLC was above 100 µM in each case. Also, the TGI with SN12C renal, in the assay with U251 CNS and with SNB-19 CNS was above 100 µM each time.
